Data as given in patent publication US10993448B2, “Method for sanitizing fresh produce” (Dole Fresh Vegetables, Inc., priority 2014, dated 2021).
“And” between values parts separate entries of the source, which are not always exact repeats. Equal entries are not always repeated. Where two headings read alike, the source gives them in different places.

Experiments:
[1] = system: Listeria monocytogenes; test: Suspension tests, Listeria; assay type: cell-based; design: key to Average log reduction: * indicates a sample in which no bacteria grew, so no fold reduction may be calculated; details: for Average log reduction: vs water control
[2] = system: E. coli O157:H7; test: Suspension tests, E. coli; assay type: cell-based; design: key to Average log reduction: * indicates a sample in which no bacteria grew, so no fold reduction may be calculated; details: for Average log reduction: vs water control
[3] = system: Non-selective mix; test: Suspension tests, non-selective agar; assay type: cell-based, E. coli O157:H7, sv. Typhimurium, and Listeria monocytogenes; design: key to Average log reduction: * indicates a sample in which no bacteria grew, so no fold reduction may be calculated; details: for Average log reduction: vs water control
[4] = system: Salmonella; test: Suspension tests, Salmonella; assay type: cell-based, sv. Typhimurium; design: key to Average log reduction: * indicates a sample in which no bacteria grew, so no fold reduction may be calculated; details: for Average log reduction: vs water control
[5] = system: Listeria monocytogenes; assay type: cell-based
[6] = system: background microbial load (LB load); test: Log reduction analysis of background bacteria on inoculated Romaine lettuce; assay type: cell-based; details: after each dip, in log units, No treatment 4.81
[7] = system: microbial load (APC) of chopped Romaine lettuce; assay type: cell-based
[8] = system: microbial load (Total Aerobic Plate Count) of raw, unwashed leafy vegetables; assay type: cell-based
[9] = system: background microflora in wash water; test: Reduction of bacteria from wash water using ozone; assay type: cell-based
Description: Water containing high levels of background microflora was generated by dipping 200 g of lettuce in 2 L of water for 20 seconds. This lettuce was discarded and another 200 g of lettuce was dipped in the same water for 20 seconds. This was repeated for a total of 10 dips (referred to as Control in Table 34 below). Water with dissolved Ozone was then generated using a ClearWater Tech MSW245 Mobile Ozone Generator (San Luis Obispo, Calif.). The control microflora containing water was then mixed with this ‘Ozonated water’ at various mix levels ranging from 10 to 60% of the ozonated water with the control microflora containing water. First, 10% ozonated water was blended with 90% microflora containing water and after 20 seconds, 100 ml of water was removed into a sterile water sample bottle. This protocol was repeated in triplicate, as well as testing 20%, 30%, 40%, 50%, and 60% blends of ozonated water combined with the microflora containing water. In addition, 200 g of lettuce was added to the ozonated solution for 20 seconds and 100 ml of water was then collected in a sterile water sample bottle. This was also repeated in triplicate. The samples were serially diluted using PB as the diluent and plated on Total Plate Count agar. The plates were incubated for 48 hours at 30° C. for enumeration of the bacteria present following treatment.
The theoretical dilution reduction in Table 34 was calculated based on the number of cells that would be present if they were diluted in water or buffer (i.e. not a solution that would cause cell death or injury).

[O][Cl+][O-] [ClO2 dip, chlorine dioxide]
% bacteria killed ([1]; 30 seconds at 4° C.): 100% | Average (bacterial load) ([1]; 30 seconds at 4° C., Water 4.96 × 10^5): 0.00 | Average log reduction ([1]; 30 seconds at 4° C.): * | % bacteria killed ([1]; 30 seconds at 15° C.): 100% | Average (bacterial load) ([1]; 30 seconds at 15° C., Water 2.24 × 10^6): 0.00 | Average log reduction ([1]; 30 seconds at 15° C.): * | % bacteria killed ([1]; 30 seconds at 40° C.): 99.9999% | Average (bacterial load) ([1]; 30 seconds at 40° C., Water 2.32 × 10^6): 2.00 × 10^0 | Average log reduction ([1]; 30 seconds at 40° C.): 6.06 | % bacteria killed ([1]; 90 seconds at 4° C.): 100% | Average (bacterial load) ([1]; 90 seconds at 4° C., Water 2.06 × 10^5): 0.00 | Average log reduction ([1]; 90 seconds at 4° C.): * | % bacteria killed ([1]; 90 seconds at 15° C.): 100% | Average (bacterial load) ([1]; 90 seconds at 15° C., Water 7.14 × 10^4): 0.00 | Average log reduction ([1]; 90 seconds at 15° C.): * | % bacteria killed ([1]; 90 seconds at 40° C.): 96.080% | Average (bacterial load) ([1]; 90 seconds at 40° C., Water 2.50 × 10^6): 9.80 × 10^4 | Average log reduction ([1]; 90 seconds at 40° C.): 1.41 | % bacteria killed ([2]; 30 seconds at 4° C.): 100% | Average (bacterial load) ([2]; 30 seconds at 4° C., Water 5.72 × 10^6): 0.00 | Average log reduction ([2]; 30 seconds at 4° C.): * | % bacteria killed ([2]; 30 seconds at 15° C.): 100% | Average (bacterial load) ([2]; 30 seconds at 15° C., Water 5.96 × 10^6): 0.00 | Average log reduction ([2]; 30 seconds at 15° C.): * | % bacteria killed ([2]; 30 seconds at 40° C.): 99.9993% | Average (bacterial load) ([2]; 30 seconds at 40° C., Water 3.22 × 10^6): 2.20 × 10^1 | Average log reduction ([2]; 30 seconds at 40° C.): 5.17 | % bacteria killed ([2]; 90 seconds at 4° C.): 100% | Average (bacterial load) ([2]; 90 seconds at 4° C., Water 3.96 × 10^6): 0.00 | Average log reduction ([2]; 90 seconds at 4° C.): * | % bacteria killed ([2]; 90 seconds at 15° C.): 100% | Average (bacterial load) ([2]; 90 seconds at 15° C., Water 5.74 × 10^6): 0.00 | Average log reduction ([2]; 90 seconds at 15° C.): * | % bacteria killed ([2]; 90 seconds at 40° C.): 99.1083% | Average (bacterial load) ([2]; 90 seconds at 40° C., Water 3.14 × 10^6): 2.80 × 10^4 | Average log reduction ([2]; 90 seconds at 40° C.): 2.05 | % bacteria killed [3]: 100.000% | Average (bacterial load) ([3]; 30 seconds at 4° C., Water 1.00 × 10^7): 0.00 | % bacteria killed ([3]; 30 seconds at 4° C., listed as 10 ppm chlorine dioxide): 100% | % bacteria killed ([3]; 30 seconds at 4° C., listed as Chlorine dioxide (10 ppm)): 100% | Average log reduction ([3]; 30 seconds at 4° C.): * | Average (bacterial load) ([3]; 30 seconds at 15° C., Water 8.46 × 10^6): 0.00 | % bacteria killed ([3]; 30 seconds at 15° C., listed as 10 ppm chlorine dioxide): 100% | % bacteria killed ([3]; 30 seconds at 15° C., listed as Chlorine dioxide (10 ppm)): 100% | Average log reduction ([3]; 30 seconds at 15° C.): * | Average (bacterial load) ([3]; 30 seconds at 40° C., Water 8.30 × 10^6): 1.00 × 10^2 | % bacteria killed ([3]; 30 seconds at 40° C., listed as 10 ppm chlorine dioxide): 99.9988% | % bacteria killed ([3]; 30 seconds at 40° C., listed as Chlorine dioxide (10 ppm)): 99.9988% | Average log reduction ([3]; 30 seconds at 40° C.): 4.92 | Average (bacterial load) ([3]; 90 seconds at 4° C., Water 6.22 × 10^6): 2.00 × 10^0 | % bacteria killed ([3]; 90 seconds at 4° C., listed as 10 ppm chlorine dioxide): 100% | % bacteria killed ([3]; 90 seconds at 4° C., listed as Chlorine dioxide (10 ppm)): 100% | Average log reduction ([3]; 90 seconds at 4° C.): 6.49 | Average (bacterial load) ([3]; 90 seconds at 15° C., Water 1.21 × 10^7): 2.00 × 10^1 | % bacteria killed ([3]; 90 seconds at 15° C., listed as 10 ppm chlorine dioxide): 99.9998% | % bacteria killed ([3]; 90 seconds at 15° C., listed as Chlorine dioxide (10 ppm)): 99.9998% | Average log reduction ([3]; 90 seconds at 15° C.): 5.78 | Average (bacterial load) ([3]; 90 seconds at 40° C., Water 9.76 × 10^6): 7.20 × 10^4 | % bacteria killed ([3]; 90 seconds at 40° C., listed as 10 ppm chlorine dioxide): 99.2623% | % bacteria killed ([3]; 90 seconds at 40° C., listed as Chlorine dioxide (10 ppm)): 99.2623% | Average log reduction ([3]; 90 seconds at 40° C.): 2.13 | % bacteria killed ([4]; 30 seconds at 4° C.): 100% | Average (bacterial load) ([4]; 30 seconds at 4° C., Water 5.32 × 10^6): 0.00 | Average log reduction ([4]; 30 seconds at 4° C.): * | % bacteria killed ([4]; 30 seconds at 15° C.): 100% | Average (bacterial load) ([4]; 30 seconds at 15° C., Water 2.70 × 10^6): 0.00 | Average log reduction ([4]; 30 seconds at 15° C.): * | % bacteria killed ([4]; 30 seconds at 40° C.): 99.9995% | Average (bacterial load) ([4]; 30 seconds at 40° C., Water 4.36 × 10^6): 2.20 × 10^1 | Average log reduction ([4]; 30 seconds at 40° C.): 5.30 | % bacteria killed ([4]; 90 seconds at 4° C.): 100% | Average (bacterial load) ([4]; 90 seconds at 4° C., Water 1.57 × 10^6): 0.00 | Average log reduction ([4]; 90 seconds at 4° C.): * | % bacteria killed ([4]; 90 seconds at 15° C.): 100% | Average (bacterial load) ([4]; 90 seconds at 15° C., Water 4.54 × 10^6): 0.00 | Average log reduction ([4]; 90 seconds at 15° C.): * | % bacteria killed ([4]; 90 seconds at 40° C.): 99.4879% | Average (bacterial load) ([4]; 90 seconds at 40° C., Water 7.42 × 10^6): 3.80 × 10^4 | Average log reduction ([4]; 90 seconds at 40° C.): 2.29 | Listeria Load (%) [5]: 2.87% and 4.29% | Avg. Bacterial Load ([6]; Treatment 1 (ClO2, Cl2, PAA)): 1.56 | Avg. Bacterial Load ([6]; Treatment 2 (ClO2, PAA, Cl2)): 2.41

CC(=O)OO [PAA, peroxyacetic acid]
log unit reduction in microbial load after each individual step [7]: 2.4 log unit

OO [Treatment H2O2, hydrogen peroxide]
APC (CFU/g) [8]: 5,800 CFU/g

O=[O+][O-] [ozone solution, ozone]
Avg. CFU/ml ([9]; lettuce 20 sec in ozone solution, initial ozone 2.2 ppm, 20 sec in water 19266): 6900 CFU/ml | Avg. CFU/ml ([9]; ozone solution (initial 1.8 ppm) mixed with microflora containing water, Control after 10 dips in water 300000, listed as 10% ozone solution, After mixing 10% ozone solution): 300000 CFU/ml | Avg. CFU/ml ([9]; ozone solution (initial 1.8 ppm) mixed with microflora containing water, Control after 10 dips in water 300000, listed as 20% ozone solution, After mixing 20% ozone solution): 185333 CFU/ml | Avg. CFU/ml ([9]; ozone solution (initial 1.8 ppm) mixed with microflora containing water, Control after 10 dips in water 300000, listed as 30% ozone solution, After mixing 30% ozone solution): 174667 CFU/ml | Avg. CFU/ml ([9]; ozone solution (initial 1.8 ppm) mixed with microflora containing water, Control after 10 dips in water 300000, listed as 40% ozone solution, After mixing 40% ozone solution): 121667 CFU/ml | Avg. CFU/ml ([9]; ozone solution (initial 1.8 ppm) mixed with microflora containing water, Control after 10 dips in water 300000, listed as 50% ozone solution, After mixing 50% ozone solution): 87667 CFU/ml | Avg. CFU/ml ([9]; ozone solution (initial 1.8 ppm) mixed with microflora containing water, Control after 10 dips in water 300000, listed as 60% ozone solution, After mixing 60% ozone solution): 70333 CFU/ml
